Experimental data taken from patent US20080255155A1, “KINASE INHIBITORS AND USES THEREOF” (priority 2006, published 2008).
pIC50: −log10 of the molar value.

How the values were obtained:
[1] = biological target: T1, recombinant human c-Met/HGF receptor (Homo sapiens, UniProt P08581); experiment: In vitro receptor tyrosine kinase assay, c-Met (DELFIA); assay type: biochemical; settings: ATP 10 uM, enzyme 25 nM; read-out: Potency in enzyme assays Cmet
T1 construct: His tag; made in house; host or cells: Hi-5 cells (Trichoplusia ni), recombinant baculovirus
T1 sequence (P08581 1078-1337): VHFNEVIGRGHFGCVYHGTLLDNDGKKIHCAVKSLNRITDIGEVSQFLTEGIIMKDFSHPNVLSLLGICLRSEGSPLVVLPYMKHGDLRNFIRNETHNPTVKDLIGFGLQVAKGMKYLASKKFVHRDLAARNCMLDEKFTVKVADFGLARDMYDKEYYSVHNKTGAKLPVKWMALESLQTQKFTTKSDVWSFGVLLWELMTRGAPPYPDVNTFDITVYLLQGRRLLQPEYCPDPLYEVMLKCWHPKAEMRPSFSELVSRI
Description: (§1) These tests measure the ability of compounds to inhibit the enzymatic activity of recombinant human c-Met/HGF receptor and VEGF receptor enzymatic activity.
A 1.3-kb cDNA corresponding to the intracellular domain of c-Met or c-Met IC (Genbank accession number NP000236-1 amino acid […]) is cloned into the BamHI/XhoI sites of the pBlueBacHis2A vector (Invitrogen) for the production of a histidine-tagged version of that enzyme. This construct is used to generate recombinant baculovirus using the Bac-N-Blue™ system according to the manufacturer's instructions (Invitrogen).
(§2) The c-Met IC protein is expressed in Hi-5 cells (Trichoplusia Ni) upon infection with recombinant baculovirus construct. Briefly, Hi-5 cells grown in suspension and maintained in serum-free medium (Sf900 II supplemented with gentamycin) at a cell density of about 2×10^6 cells/ml are infected with the above-mentioned viruses at a multiplicity of infection (MOI) of 0.2 during 72 hours at 27° C. with agitation at 120 rpm on a rotary shaker. Infected cells are harvested by centrifugation at 398 g for 15 min. Cell pellets are frozen at −80° C. until purification is performed.
All steps described in cell extraction and purification are performed at 4° C. Frozen Hi-5 cell pellets infected with the C-Met IC recombinant baculovirus are thawed and gently resuspended in Buffer A (20 mM Tris pH 8.0, 10% glycerol, 1 μg/ml pepstatin, 2 μg/ml Aprotinin and leupeptin, 50 μg/ml PMSF, 50 μg/ml TLCK and 10 μM E64, 0.5 mM DTT and 1 mM Levamisole) using 3 ml of buffer per gram of cells. The suspension is Dounce homogenized after which it is centrifuged at 22500 g, 30 min., 4° C. The supernatant (cell extract) is used as starting material for purification of c-Met IC.
The supernatant is loaded onto a QsepharoseFF column (Amersham Biosciences) equilibrated with Buffer B (20 mM Tris pH 8.0, 10% glycerol) supplemented with 0.05M NaCl. Following a ten column volume (CV) wash with equilibration buffer, bound proteins are eluted with a 5 CV salt linear gradient spanning from 0.05 to 1M NaCl in Buffer B. Typically, the conductivity of selected fractions rank between 6.5 and 37 mS/cm. This Qsepharose eluate has an estimated NaCl concentration of 0.33M and is supplemented with a 5M NaCl solution in order to increase NaCl concentration at 0.5M and also with a 5M Imidazole (pH 8.0) solution to achieve a final imidazole concentration of 15 mM. This material is loaded onto a HisTrap affinity column (GE Healthcare) equilibrated with Buffer C (50 mM NaPO4 pH 8.0, 0.5M NaCl, 10% glycerol) supplemented with 15 mM imidazole. After a 10 CV wash with equilibration buffer and an 8 CV wash with buffer C+40 mM imidazole, bound proteins are eluted with an 8 CV linear gradient (15 to 500 mM) of imidazole in buffer C. C-Met IC enriched fractions from this chromatography step are pooled based on SDS-PAGE analysis. This pool of enzyme undergoes buffer exchange using PD-10 column (GE Healthcare) against buffer D (25 mM HEPES pH 7.5, 0.1M NaCl, 10% glycerol and 2 mM β-mercaptoethanol). Final C-Met IC protein preparations concentrations are about 0.5 mg/ml with purity approximating 80%. Purified c-Met IC protein stocks are supplemented with BSA at 1 mg/ml, aliquoted and frozen at −80° C. prior to use in enzymatic assay.
Inhibition of c-Met/HGF receptor and VEGFR/KDR is measured in a DELFIA™ assay (Perkin Elmer). The substrate poly(Glu4,Tyr) is immobilized onto black high-binding polystyrene 96-well plates. The coated plates are washed and stored at 4° C. During the assay, enzymes are pre-incubated with inhibitor and Mg-ATP on ice in polypropylene 96-well plates for 4 minutes, and then transferred to the coated plates. The subsequent kinase reaction takes place at 30° C. for 10-30 minutes. ATP concentrations in the assay are 10 uM for C-Met (5× the Km) and 0.6 uM for VEGFR/KDR (2× the Km). Enzyme concentration is 25 nM (C-Met) or 5 nM (VEGFR/KDR). […]

[2] = biological target: T2, VEGF receptor KDR (Homo sapiens, UniProt P35968); experiment: In vitro receptor tyrosine kinase assay, VEGF receptor KDR (DELFIA); assay type: biochemical; settings: ATP 0.6 uM, enzyme 5 nM; read-out: Potency in enzyme assays VEGF
T2 construct: made in house; host or cells: Sf9 cells (Spodoptera frugiperda), recombinant baculovirus
T2 sequence (P35968 806-1356): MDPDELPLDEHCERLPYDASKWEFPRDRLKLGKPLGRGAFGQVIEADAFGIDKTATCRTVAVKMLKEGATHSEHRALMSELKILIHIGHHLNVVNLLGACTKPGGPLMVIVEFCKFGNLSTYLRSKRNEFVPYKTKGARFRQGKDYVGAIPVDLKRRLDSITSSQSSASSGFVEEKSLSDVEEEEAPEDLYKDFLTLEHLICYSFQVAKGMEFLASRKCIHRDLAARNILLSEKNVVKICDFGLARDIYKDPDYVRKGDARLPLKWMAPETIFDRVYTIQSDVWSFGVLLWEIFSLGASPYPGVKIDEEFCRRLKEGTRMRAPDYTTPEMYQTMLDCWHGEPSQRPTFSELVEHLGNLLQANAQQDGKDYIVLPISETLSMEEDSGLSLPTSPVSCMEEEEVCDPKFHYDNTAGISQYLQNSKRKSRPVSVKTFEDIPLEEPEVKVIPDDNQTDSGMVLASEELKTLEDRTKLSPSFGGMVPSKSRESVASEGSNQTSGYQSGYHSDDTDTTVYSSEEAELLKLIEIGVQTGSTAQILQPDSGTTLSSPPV
Description: as §1
In the case of VEGF receptor KDR a 1.6-kb cDNA corresponding to the catalytic domain of VEGFR2 or KDR (Genbank accession number AF035121 amino acid 806 to 1356) is cloned into the Pst I site of the pDEST20 Gateway vector (Invitrogen) for the production of a GST-tagged version of that enzyme. This construct is used to generate recombinant baculovirus using the Bac-to-Bac system according to the manufacturer's instructions (Invitrogen).
as §2, with “GST-VEGFR2806-1356” for “c-Met IC”, “Sf9” for “Hi-5”, “(Spodoptera frugiperda)” for “(Trichoplusia Ni)”, “0.1” for “0.2”
All steps described in cell extraction and purification are performed at 4° C. Frozen Sf9 cell pellets infected with the GST-VEGFR2806-1356 recombinant baculovirus re thawed and gently resuspended in Buffer A (PBS pH 7.3 supplemented with 1 μg/ml pepstatin, 2 μg/ml Aprotinin and leupeptin, 50 μg/ml PMSF, 50 μg/ml TLCK and 10 μM E64 and 0.5 mM DTT) using 3 ml of buffer per gram of cells. Suspension is Dounce homogenized and 1% Triton X-100 is added to the homogenate after which it is centrifuged at 22500 g, 30 min., 4° C. The supernatant (cell extract) is used as starting material for purification of GST-VEGFR2806-1356.
The supernatant is loaded onto a GST-agarose column (Sigma) equilibrated with PBS pH 7.3. Following a four column volume (CV) wash with PBS pH 7.3+1% Triton X-100 and 4 CV wash with buffer B (50 mM Tris pH 8.0, 20% glycerol and 100 mM NaCl), bound proteins are step eluted with 5 CV of buffer B supplemented with 5 mM DTT and 15 mM glutathion. GST-VEGFR2806-1356 enriched fractions from this chromatography step are pooled based on U.V. trace i.e. fractions with high O.D^-280- Final GST-VEGFR2806-1356 protein preparations concentrations are about 0.7 mg/ml with purity approximating 70%. Purified GST-VEGFR2806-1356 protein stocks are aliquoted and frozen at −80° C. prior to use in enzymatic assay.
Inhibition of c-Met/HGF receptor and VEGFR/KDR is measured in a DELFIA™ assay (Perkin Elmer). The substrate poly(Glu4,Tyr) is immobilized onto black high-binding polystyrene 96-well plates. The coated plates are washed and stored at 4° C. During the assay, enzymes are pre-incubated with inhibitor and Mg-ATP on ice in polypropylene 96-well plates for 4 minutes, and then transferred to the coated plates. The subsequent kinase reaction takes place at 30° C. for 10-30 minutes. ATP concentrations in the assay are 10 uM for C-Met (5× the Km) and 0.6 uM for VEGFR/KDR (2× the Km). Enzyme concentration is 25 nM (C-Met) or 5 nM (VEGFR/KDR). After incubation, the kinase reactions are quenched with EDTA and the plates are washed. Phosphorylated product is detected by incubation with Europium-labeled anti-phosphotyrosine MoAb. After washing the plates, bound MoAb is detected by time-resolved fluorescence in a Gemini SpectraMax reader (Molecular Devices). Compounds are evaluated over a range of concentrations and IC50's (concentration of compounds giving 50% inhibition of enzymatic activity) are determined.

[3] = test system: DU145; experiment: DU145 scattering inhibition; settings: Homo sapiens, DU-145; DU145 cells; read-out: Potency in cell-based assays DU145 scattering inhibition
[4] = test system: A549; experiment: A549 wound healing inhibition; settings: Homo sapiens; A549 cells; read-out: Potency in cell-based assays A549 wound healing inhibition

Row | SMILES | pIC50 [1] | pIC50 [2] | pIC50 [3] | pIC50 [4]
1 | CN(C)[C@@H]1CCN(C(=O)Nc2cc(Oc3ccc(NC(=O)N4CCN(c5ccc(F)cc5)C4=O)cc3F)ccn2)C1 [Compound 18g, (R)-N-(4-(2-(3-(dimethylamino)pyrrolidine-1-carboxamido)pyridin-4-yloxy)-3-fluorophenyl)-3-(4-fluorophenyl)-2-oxoimidazolidine-1-carboxamide] | > 6.60 | > 6.60 | ≤ 6.00 | ≤ 6.00
2 | CN(C)[C@H]1CCN(C(=O)Nc2cc(Oc3ccc(NC(=O)N4CCN(c5ccc(F)cc5)C4=O)cc3F)ccn2)C1 [Compound 18h, (S)-N-(4-(2-(3-(dimethylamino)pyrrolidine-1-carboxamido)pyridin-4-yloxy)-3-fluorophenyl)-3-(4-fluorophenyl)-2-oxoimidazolidine-1-carboxamide] | > 6.60 | > 6.60 | ≤ 6.00 | ≤ 6.00
3 | CN(C)CCCOC(=O)Nc1cc(Oc2ccc(NC(=O)N3CCN(c4ccccc4)C3=O)cc2F)ccn1 [Compound 18i, 3-(dimethylamino)propyl4-(2-fluoro-4-(2-oxo-3-phenylimidazolidine-1-carboxamido)phenoxy),pyridin-2-ylcarbamate] | > 6.60 | ≤ 6.00 | 5.30 to 6.00 | 5.30 to 6.00
4 | O=C(Nc1ccc(Oc2ccncc2)c(F)c1)N1CCN(c2cccc(C(F)(F)F)c2)C1=O [Compound 21c, N-(3-fluoro-4-(pyridin-4-yloxy)phenyl)-2-oxo-3-(3-(trifluoromethyl)phenyl)imidazolidine-1-carboxamide] | ≤ 6.00 | ≤ 6.00 | 5.00 to 5.30 | 5.00 to 5.30
5 | O=C(Nc1ccc(Oc2ccncc2)c(F)c1)N1CCN(c2ccc(Cl)cc2)C1=O [Compound 21f, 3-(4-chlorophenyl)-N-(3-fluoro-4-(pyridin-4-yloxy)phenyl)-2-oxoimidazolidine-1-carboxamide] | 6.30 to 6.60 | ≤ 6.00 | 5.00 to 5.30 | 5.30 to 6.00
6 | O=C(Nc1ccc(Oc2ccncc2)c(F)c1)N1CCN(c2cccc(Cl)c2)C1=O [Compound 21g, 3-(3-chlorophenyl)-N-(3-fluoro-4-(pyridin-4-yloxy)phenyl)-2-oxoimidazolidine-1-carboxamide] | 6.00 to 6.30 | ≤ 6.00 | 5.00 to 5.30 | 5.00 to 5.30
7 | O=C(Nc1ccc(Oc2ccncc2)c(F)c1)N1CCN(c2ccccc2Cl)C1=O [Compound 21h, 3-(2-chlorophenyl)-N-(3-fluoro-4-(pyridin-4-yloxy)phenyl)-2-oxoimidazolidine-1-carboxamide] | 6.00 to 6.30 | ≤ 6.00 | ≤ 6.00 | 5.30 to 6.00
8 | CC(=O)Nc1ccc(Oc2cccc(NC(=O)N3CCN(c4ccccc4)C3=O)c2)cn1 [Compound 31a, N-(3-(6-acetamidopyridin-3-yloxy)phenyl)-2-oxo-3-phenylimidazolidine-1′-carboxamide] | 6.30 to 6.60 | ≤ 6.00 | 5.00 to 5.30 | 5.30 to 6.00
9 | O=C(Nc1ccc(Oc2ccnc(Nc3ccccc3)n2)c(F)c1)N1CCN(c2ccccc2)C1=O [Compound 61a, N-(3-fluoro-4-(2-(phenylamino)pyrimidin-4-yloxy)phenyl)-2-oxo-3-phenyl-imidazolidine-1-carboxamide] | 6.00 to 6.30 | ≤ 6.00 | < 5.00 | 5.00 to 5.30
10 | COc1ccc(Nc2nccc(Oc3ccc(NC(=O)N4CCN(c5ccccc5)C4=O)cc3F)n2)cc1 [Compound 61b, N-(3-fluoro-4-(2-(4-methoxyphenylamino)pyrimidin-4-yloxy)phenyl)-2-oxo-3-phenylimidazolidine-1-carboxamide] | 6.00 to 6.30 | ≤ 6.00 | 5.00 to 5.30 | 5.00 to 5.30
11 | O=C(Nc1ccc(Oc2ccnc(Nc3ccccc3)c2)c(F)c1)N1CCN(c2ccccc2)C1=O [Compound 70, N-(3-fluoro-4-(2-(phenylamino)pyridin-4-yloxy)phenyl)-2-oxo-3-phenylimidazolidine-1-carboxamide] | > 6.60 | ≤ 6.00 | 5.00 to 5.30 | 5.30 to 6.00
12 | CNC(=O)c1cc(Oc2ccc(NC(=O)N3CCN(c4ccccc4)C3=O)cc2F)ccn1 [Compound 87a, 4-(2-fluoro-4-(2-oxo-3-phenylimidazolidine-1-carboxamido)phenoxy)-N-methylpicolinamide] | 6.30 to 6.60 | 6.30 to 6.60 | 5.00 to 5.30 | 5.30 to 6.00
